Measurements from patent US20240116910A1, “Heterocycles as WIP1 Inhibitors” (PMV Pharmaceuticals, Inc., priority 2022, published 2024).

molecular target: recombinant His-tag Wip1(2-420) protein (amino acids #2-420) (Homo sapiens (Human), UniProt O15297); experiment: Wip1(2-420) phosphatase enzyme FDP assay; format: biochemical; settings: fluorescein diphosphate (FDP) substrate, RT 2 hours, fluorescence Ex485/Em535; read-out: WIP1 (Truncated 2-420) FDP Assay: IC50
Sequence (O15297 2-420): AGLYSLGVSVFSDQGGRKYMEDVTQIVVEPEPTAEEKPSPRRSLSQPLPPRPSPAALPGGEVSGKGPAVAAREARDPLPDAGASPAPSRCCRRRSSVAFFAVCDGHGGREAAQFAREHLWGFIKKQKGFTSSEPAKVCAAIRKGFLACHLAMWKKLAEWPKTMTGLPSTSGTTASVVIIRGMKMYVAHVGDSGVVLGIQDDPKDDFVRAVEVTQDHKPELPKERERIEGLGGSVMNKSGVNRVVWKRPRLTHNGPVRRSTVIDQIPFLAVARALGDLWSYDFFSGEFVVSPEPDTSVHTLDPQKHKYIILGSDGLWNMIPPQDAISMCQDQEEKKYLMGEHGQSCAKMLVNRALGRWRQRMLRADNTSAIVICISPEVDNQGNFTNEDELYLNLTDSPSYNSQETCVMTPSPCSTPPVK

SMILES	IC50
Cc1ncc(Cl)cc1N[C@@H](C)c1ccc(C(=O)N[C@@H](CC2CCCC2)C(=O)NC2CC3(COC3)C2)s1 [Compound 237, (2S)-2-({5-[(1S)-1-[(5-chloro-2-methylpyridin-3-yl)amino]ethyl]thiophen-2-yl}formamido)-3-cyclopentyl-N-{2-oxaspiro[3.3]heptan-6-yl}propanamide]	8 nM
COc1ccc(-c2ncc(Cl)cc2N[C@H](C)c2ccc(C(=O)N[C@@H](CC3CCCC3)C(=O)NC3CC3)s2)cc1 [Compound 238, (2S)-2-({5-[(1R)-1-{[5-chloro-2-(4-methoxyphenyl)pyridin-3-yl]amino}ethyl]thiophen-2-yl}formamido)-3-cyclopentyl-N-cyclopropylpropanamide]	188 nM
C[C@@H](c1ccc(C(=O)N[C@@H](CC2CCCC2)C(=O)NC2CC2)s1)N1CCN(C)c2ccc(Cl)cc21 [Compound 239, (2S)-2-({5-[(1S)-1-(7-chloro-4-methyl-1,2,3,4-tetrahydroquinoxalin-1-yl)ethyl]thiophen-2-yl}formamido)-3-cyclopentyl-N-cyclopropylpropanamide]	38 nM
C[C@H](c1ccc(C(=O)N[C@@H](CC2CCCC2)C(=O)NC2CC2)s1)N1CCN(C)c2ccc(Cl)cc21 [Compound 240, (2S)-2-({5-[(1R)-1-(7-chloro-4-methyl-1,2,3,4-tetrahydroquinoxalin-1-yl)ethyl]thiophen-2-yl}formamido)-3-cyclopentyl-N-cyclopropylpropanamide]	154 nM
COc1ccccc1-c1ncc(Cl)cc1N[C@H](C)c1ccc(C(=O)N[C@@H](CC2CCCC2)C(=O)NC2CC2)s1 [Compound 241, (2S)-2-({5-[(1R)-1-{[5-chloro-2-(2-methoxyphenyl)pyridin-3-yl]amino}ethyl]thiophen-2-yl}formamido)-3-cyclopentyl-N-cyclopropylpropanamide]	330 nM
COc1ccccc1-c1ncc(Cl)cc1N[C@@H](C)c1ccc(C(=O)N[C@@H](CC2CCCC2)C(=O)NC2CC2)s1 [Compound 242, (2S)-2-({5-[(1S)-1-{[5-chloro-2-(2-methoxyphenyl)pyridin-3-yl]amino}ethyl]thiophen-2-yl}formamido)-3-cyclopentyl-N-cyclopropylpropanamide]	7 nM
Cc1ncc(Cl)cc1N[C@@H](C)c1ccc(C(=O)N[C@@H](CC2CCCC2)C(=O)Nc2ccc3ncccc3c2)s1 [Compound 243, (2S)-2-({5-[(1S)-1-[(5-chloro-2-methylpyridin-3-yl)amino]ethyl]thiophen-2-yl}formamido)-3-cyclopentyl-N-(quinolin-6-yl)propanamide]	4 nM
Cc1ncc(Cl)cc1N[C@@H](C)c1ccc(C(=O)N[C@@H](C[C@H]2CCC3CC32)C(=O)NC23CC(C2)C3)s1 (stereo partly drawn) [Compound 244, (2S)-N-{bicyclo[1.1.1]pentan-1-yl}-3-[(2R)-bicyclo[3.1.0]hexan-2-yl]-2-({5-[(1S)-1-[(5-chloro-2-methylpyridin-3-yl)amino]ethyl]thiophen-2-yl}formamido)propanamide]	5 nM
Cc1ncc(Cl)cc1N[C@@H](C)c1ccc(C(=O)N[C@@H](C[C@@H]2CCC3CC32)C(=O)NC23CC(C2)C3)s1 (stereo partly drawn) [Compound 245, (2S)-N-{bicyclo[1.1.1]pentan-1-yl}-3-[(2S)-bicyclo[3.1.0]hexan-2-yl]-2-({5-[(1S)-1-[(5-chloro-2-methylpyridin-3-yl)amino]ethyl]thiophen-2-yl}formamido)propanamide]	10 nM
Cc1ncc(Cl)cc1N[C@@H](C)c1ccc(C(=O)N[C@H](C(=O)NC23CC(C2)C3)C(C)(C)C)s1 [Compound 246, (2S)-N-{bicyclo[1.1.1]pentan-1-yl}-2-({5-[(1S)-1-[(5-chloro-2-methylpyridin-3-yl)amino]ethyl]thiophen-2-yl}formamido)-3,3-dimethylbutanamide]	2210 nM

The remaining lines, values ahead:

IC50	SMILES
> 10000 nM	Cc1ncc(Cl)cc1N[C@@H](C)c1ccc(C(=O)N[C@@H](C(=O)NC23CC(C2)C3)C(C)(C)C)s1 [Compound 247, (2R)-N-{bicyclo[1.1.1]pentan-1-yl}-2-({5-[(1S)-1-[(5-chloro-2-methylpyridin-3-yl)amino]ethyl]thiophen-2-yl}formamido)-3,3-dimethylbutanamide]
16 nM	C[C@@H](c1ccc(C(=O)N[C@@H](CC2CCCC2)C(=O)NC2CC2)s1)N1CCCc2ccc(Cl)cc21 [Compound 248, (2S)-2-({5-[(1S)-1-(7-chloro-1,2,3,4-tetrahydroquinolin-1-yl)ethyl]thiophen-2-yl}formamido)-3-cyclopentyl-N-cyclopropylpropanamide]
156 nM	C[C@H](c1ccc(C(=O)N[C@@H](CC2CCCC2)C(=O)NC2CC2)s1)N1CCCc2ccc(Cl)cc21 [Compound 249, (2S)-2-({5-[(1R)-1-(7-chloro-1,2,3,4-tetrahydroquinolin-1-yl)ethyl]thiophen-2-yl}formamido)-3-cyclopentyl-N-cyclopropylpropanamide]
301 nM	O=C(N[C@@H](CC1CCCC1)C(=O)NC1CC1)c1ccc([C@@H]2CCc3c(Cl)cccc3N2)s1 [Compound 250, (2S)-2-({5-[(2S)-5-chloro-1,2,3,4-tetrahydroquinolin-2-yl]thiophen-2-yl}formamido)-3-cyclopentyl-N-cyclopropylpropanamide]
678 nM	O=C(N[C@@H](CC1CCCC1)C(=O)NC1CC1)c1ccc([C@H]2CCc3c(Cl)cccc3N2)s1 [Compound 251, (2S)-2-({5-[(2R)-5-chloro-1,2,3,4-tetrahydroquinolin-2-yl]thiophen-2-yl}formamido)-3-cyclopentyl-N-cyclopropylpropanamide]
8 nM	Cc1cc(NC(=O)[C@H](CC2CCCCC2)NC(=O)c2ccc([C@H](C)Nc3cc(Cl)cnc3C)s2)ccn1 [Compound 252, (2S)-2-({5-[(1S)-1-[(5-chloro-2-methylpyridin-3-yl)amino]ethyl]thiophen-2-yl}formamido)-3-cyclohexyl-N-(2-methylpyridin-4-yl)propanamide]
> 10000 nM	Cc1ncc(Cl)cc1N[C@@H](C)c1ccc(C(=O)NC2Cc3ccccc3NC2=O)s1 (stereo partly drawn) [Compound 253, 5-[(1S)-1-[(5-chloro-2-methylpyridin-3-yl)amino]ethyl]-N-(2-oxo-1,2,3,4-tetrahydroquinolin-3-yl)thiophene-2-carboxamide]
11 nM	COc1ccc(Cl)cc1N[C@@H](C)c1ccc(C(=O)N[C@@H](CC2CCCC2)C(=O)NC2CC2)s1 [Compound 254, (2S)-2-({5-[(1S)-1-[(5-chloro-2-methoxyphenyl)amino]ethyl]thiophen-2-yl}formamido)-3-cyclopentyl-N-cyclopropylpropanamide]
4870 nM	Cc1ncc(Cl)cc1N[C@@H](C)c1ccc(C(=O)N[C@H](CC23CCC(CC2)CC3)C(=O)NC2CC2)s1 [Compound 255, (2R)-3-{bicyclo[2.2.2]octan-1-yl}-2-({5-[(1S)-1-[(5-chloro-2-methylpyridin-3-yl)amino]ethyl]thiophen-2-yl}formamido)-N-cyclopropylpropanamide]
6 nM	Cc1ncc(Cl)cc1N[C@@H](C)c1ccc(C(=O)N[C@@H](CC23CCC(CC2)CC3)C(=O)NC2CC2)s1 [Compound 256, (2S)-3-{bicyclo[2.2.2]octan-1-yl}-2-({5-[(1S)-1-[(5-chloro-2-methylpyridin-3-yl)amino]ethyl]thiophen-2-yl}formamido)-N-cyclopropylpropanamide]
